The values below are quoted from earlier work in patent publication US20260217893A1, “ACID-BLOCKED PYRROLIDINE CATALYSTS FOR POLYURETHANE FOAM” (Huntsman Petrochemical LLC, priority 2019, published 2026).

A word on the pKa: it is the negative logarithm of the acid dissociation constant.

For this series the following is noted: refs 2-5: CRC Handbook, U.S. Pat. No. 9,051,442, J. Org. Chem. 1961, J. Chem. Eng. Data 2016.
Consider `CN(C)CCN(C)CCO` [JEFFCAT ® Z-110, N,N,N-trimethylaminoethyl-ethanolamine], for which the pKa is given as 9.18.

Regarding `CN(C)CCOCCO` [JEFFCAT ® ZR-70, 2-(2-dimethylaminoethoxy) ethanol], the pKa is 9.1.

For `CN(C)CCN(C)CCN(C)C` [PMDETA, pentamethyldiethylenetriamine], the pKa is listed as 9.1.

For the compound `CN(C)C1CCCCC1` [dimethylcyclohexylamine, N,N-dimethylcyclohexylamine], the pKa is on record as 10.1.
